# In US7618967B2, “Indane compounds” (H. Lundbeck A/S, priority 2006, dated 2009):
# Target: NAT Noradrenergic Transporter (Rattus norvegicus, UniProt Q9WTR4)
# Test: Measurements of [3H]noradrenaline uptake into rat cortical synaptosomes
# Assay type: biochemical
# Description: Transporter Inhibition Assays
# Measurements of [^3H]Noradrenaline Uptake into Rat Cortical Synaptosomes
# The homogenate is centrifuged at 1000×g for 10 min at 4° C. The pellet is discarded and the supernatant is centrifuged at 40.000×g for 20 min. […] Pellet is suspended in 140 volumes of assaybuffer. Tissue is mixed with test compounds and after 10 min pre-incubation, 10 nM [^3H]-noradrenaline is added to a final volume of 0.2 ml and the mixture is incubated for 15 min at 37° C. After 15 min incubation, samples are filtered directly on Unifilter GF/C glass fiber filters (soaked for 30 min in 0.1% polyethylenimine) under vacuum and immediately washed with 1×0.2 mL assay buffer.
# Non-specific uptake is determined using talsupram (10 μM final concentration). Duloxetine is included as reference in all experiments as dose-response curve.
# Chain of NAT Noradrenergic Transporter (Q9WTR4 6-550 limits assumed): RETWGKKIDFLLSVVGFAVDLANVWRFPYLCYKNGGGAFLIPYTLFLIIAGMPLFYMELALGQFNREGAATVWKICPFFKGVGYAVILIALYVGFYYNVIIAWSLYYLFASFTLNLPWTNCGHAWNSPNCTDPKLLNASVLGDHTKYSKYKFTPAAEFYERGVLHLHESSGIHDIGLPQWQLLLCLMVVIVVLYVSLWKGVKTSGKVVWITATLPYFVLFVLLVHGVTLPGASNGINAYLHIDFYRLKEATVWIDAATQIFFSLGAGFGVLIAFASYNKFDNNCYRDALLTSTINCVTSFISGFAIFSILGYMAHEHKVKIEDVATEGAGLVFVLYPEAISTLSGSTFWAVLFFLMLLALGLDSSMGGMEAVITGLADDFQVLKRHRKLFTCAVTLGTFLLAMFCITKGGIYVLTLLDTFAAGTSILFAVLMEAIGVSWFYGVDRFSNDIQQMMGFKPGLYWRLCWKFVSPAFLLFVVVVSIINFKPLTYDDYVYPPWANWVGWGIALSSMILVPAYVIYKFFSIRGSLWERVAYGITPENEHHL
row,IC50 [nM],Structure (SMILES)
1,0.1 to 200,CN[C@@H]1C[C@@H](c2c[nH]c3cc(OC)ccc23)c2ccccc21 [Formula X]
2,0.1 to 200,CN[C@@H]1C[C@@H](c2c[nH]c3ccc(Cl)cc23)c2ccccc21 [Formula VIII]
3,0.1 to 200,CN[C@@H]1C[C@@H](c2c[nH]c3ccccc23)c2ccccc21 [Formula IX]
